What was measured:
Experiment in all cases: relative viability (nuclei count vs DMSO), 5 days (fraction); higher = more cells survive
[1] = compound: C1=CC2=NC=CN=C2C=C1/C=C/3\C(=O)NC(=O)S3 + CS(=O)(=O)CCNCc1ccc(-c2ccc3ncnc(Nc4ccc(OCc5cccc(F)c5)c(Cl)c4)c3c2)o1 [Lapatinib] (partner 2 µM)
Procedure, shortened: (§1)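 Five library-drug doses in √10 steps were combined with a fixed anchor-drug dose, or a single drug was given alone, by pin tool to lung cancer cell lines in 1536-well plates the day after seeding. Nuclei were stained and counted after 5 days. Relative viability is the nuclei count in treated wells over that in vehicle wells, taken as the median of duplicate plates.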

[2] = compound: C1=CC2=NC=CN=C2C=C1/C=C/3\C(=O)NC(=O)S3 + Cc1nc(Nc2ncc(C(=O)Nc3c(C)cccc3Cl)s2)cc(N2CCN(CCO)CC2)n1 [Dasatinib] (partner 0.075 µM)
Procedure, shortened: as §1

[3] = compound: CCN1CCN(c2ccc(Nc3cc(N(C)C(=O)Nc4c(Cl)c(OC)cc(OC)c4Cl)ncn3)cc2)CC1 [BGJ398] + C[C@@H](Oc1cc(-c2cnn(C3CCNCC3)c2)cnc1N)c1c(Cl)ccc(F)c1Cl [Crizotinib] (partner 1 µM)
Procedure, shortened: as §1

[4] = compound: CCN1CCN(c2ccc(Nc3cc(N(C)C(=O)Nc4c(Cl)c(OC)cc(OC)c4Cl)ncn3)cc2)CC1 [BGJ398] + O=C(c1cc(Cc2n[nH]c(=O)c3ccccc23)ccc1F)N1CCN(C(=O)C2CC2)CC1 [Olaparib] (partner 8 µM)
Procedure, shortened: as §1

Row | Cell Line | relative viability ([1]; first compound 0.02 µM) | relative viability ([1]; first compound 0.06325 µM) | relative viability ([1]; first compound 0.2 µM) | relative viability ([1]; first compound 0.6325 µM) | relative viability ([1]; first compound 2 µM) | relative viability ([2]; first compound 0.02 µM) | relative viability ([2]; first compound 0.06325 µM) | relative viability ([2]; first compound 0.2 µM) | relative viability ([2]; first compound 0.6325 µM) | relative viability ([2]; first compound 2 µM) | relative viability ([3]; first compound 0.01 µM) | relative viability ([3]; first compound 0.03162 µM) | relative viability ([3]; first compound 0.1 µM) | relative viability ([3]; first compound 0.3162 µM) | relative viability ([3]; first compound 1 µM) | relative viability ([4]; first compound 0.01 µM) | relative viability ([4]; first compound 0.03162 µM) | relative viability ([4]; first compound 0.1 µM) | relative viability ([4]; first compound 0.3162 µM) | relative viability ([4]; first compound 1 µM)
1 | NCI-H2023 | 0.872 | 0.735 | 1.01 | 0.764 | 0.466 | 0.5 | 0.55 | 0.582 | 0.446 | 0.246 | 0.618 | 0.62 | 0.605 | 0.747 | 0.655 | 0.486 | 0.465 | 0.513 | 0.463 | 0.503
2 | NCI-H2085 | 0.725 | 0.635 | 0.785 | 0.755 | 0.713 | 0.226 | 0.212 | 0.248 | 0.257 | 0.213 | 0.836 | 0.871 | 1.05 | 0.892 | 1.01 | 0.759 | 0.773 | 0.711 | 0.693 | 0.796
3 | NCI-H2087 | 0.859 | 1.24 | 0.941 | 0.98 | 0.931 | 0.761 | 0.713 | 0.911 | 0.857 | 0.507 | 0.923 | 0.831 | 0.865 | 0.911 | 0.863 | 0.46 | 0.744 | 0.574 | 0.609 | 0.613
4 | NCI-H2126 | 0.625 | 0.898 | 0.758 | 0.739 | 0.361 | 0.499 | 0.625 | 0.614 | 0.629 | 0.266 | 1.12 | 1.01 | 0.997 | 0.955 | 1.05 | 0.953 | 0.864 | 0.964 | 0.865 | 0.918
5 | NCI-H2170 | 0.278 | 0.271 | 0.272 | 0.251 | 0.246 | 0.495 | 0.611 | 0.508 | 0.48 | 0.597 | 1.09 | 1.22 | 1.29 | 1.25 | 1.31 | 0.605 | 0.584 | 0.633 | 0.57 | 0.553
6 | NCI-H2228 | 0.946 | 1.15 | 0.97 | 0.903 | 0.932 | 0.414 | 0.448 | 0.47 | 0.389 | 0.388 | 0.433 | 0.64 | 0.319 | 0.252 | 0.347 | 0.606 | 0.765 | 0.512 | 0.594 | 0.441
7 | NCI-H2347 | 0.886 | 0.88 | 1 | 0.79 | 0.852 | 0.318 | 0.26 | 0.306 | 0.304 | 0.293 | 0.593 | 0.878 | 0.728 | 0.962 | 0.698 | 0.539 | 0.546 | 0.553 | 0.631 | 0.63
8 | NCI-H2405 | 1.24 | 1.39 | 1.13 | 1.11 | 0.323 | 0.233 | 0.161 | 0.231 | 0.184 | 0.155 | 0.838 | 0.906 | 0.911 | 0.919 | 0.849 | 0.818 | 0.954 | 0.926 | 0.923 | 0.768
9 | NCI-H3122 | 1.09 | 1.03 | 1.04 | 0.988 | 0.972 | 0.8 | 0.953 | 0.747 | 0.816 | 0.701 | 0.229 | 0.271 | 0.282 | 0.295 | 0.272 | 0.628 | 0.611 | 0.661 | 0.596 | 0.654
10 | PC-3 [JPC-3] | 0.481 | 0.559 | 0.454 | 0.439 | 0.441 | 0.84 | 1.05 | 0.968 | 1.01 | 0.821 | 1.02 | – | 1.09 | 0.971 | 0.961 | 1.12 | – | 1.26 | – | 1.15
11 | PC-14 | 0.326 | 0.316 | 0.284 | 0.348 | 0.24 | 0.287 | 0.207 | 0.301 | 0.265 | 0.238 | 0.925 | 0.883 | 0.859 | 0.937 | 0.898 | 0.322 | 0.346 | 0.254 | 0.289 | 0.27
12 | RERF-LC-KJ | 0.729 | 0.923 | 0.842 | 0.759 | 0.689 | 0.621 | 0.911 | 0.933 | 0.654 | 0.66 | 0.807 | 0.928 | 0.852 | 0.871 | 0.788 | 0.961 | 0.959 | 0.969 | 0.917 | 0.92
13 | SK-LU-1 | 0.834 | 0.977 | 0.891 | 1.01 | 0.693 | 0.196 | 0.196 | 0.2 | 0.19 | 0.0971 | 0.905 | 0.906 | 1.01 | 0.926 | 0.787 | 0.461 | 0.579 | 0.539 | 0.348 | 0.329
14 | SK-MES-1 | 0.374 | 0.656 | 0.486 | 0.397 | 0.406 | 0.456 | 0.267 | 0.375 | 0.339 | 0.211 | 0.944 | 1.05 | 1 | 0.942 | 0.967 | 0.709 | 0.754 | 0.786 | 0.659 | 0.679
15 | SW 1573 | 1.09 | 1.36 | 0.982 | 0.928 | 0.978 | 0.392 | 0.76 | 0.69 | 0.523 | 0.291 | 0.878 | 0.802 | 0.773 | 0.808 | 0.767 | 0.413 | 0.388 | 0.45 | 0.543 | 0.525
16 | UMC-11 | 1.02 | 1.15 | 1.19 | 1.02 | 1.37 | 0.467 | 0.523 | 0.427 | 0.489 | 0.519 | 0.507 | 0.585 | 0.539 | 0.579 | 0.53 | 0.316 | 0.447 | 0.376 | 0.367 | 0.342
